Read-outs that look alike come from different tables or passages of the source.
Assays:
[1] = system: S. aureus (ATCC 29213); assay: Antibacterial assay, broth microdilution MIC; assay type: cell-based, Staphylococcus aureus; conditions: for inhibition of S. aureus growth: broth microdilution
Description: (§1) To test antimicrobial properties, a broth microdilution method in 96-well plates was used according to Clinical and Laboratory Standards Institute guidelines[31] and European Committee on Antimicrobial Susceptibility Testing ([…]) recommendations.[32] Bacterial suspensions, equivalent to a 0.5 McFarland turbidity standard, were diluted with cation-adjusted Mueller–Hinton broth with TES buffering (ThermoFisher Scientific) to achieve a final inoculum of 10^5 CFU/mL. Compounds dissolved in 100% DMSO at a concentration of 10 mM were mixed with the inoculum and incubated at 35 °C for 20 h.

[2] = system: E. coli (ATCC 25922); assay: Antibacterial assay, broth microdilution MIC; assay type: cell-based, Escherichia coli
Description: as §1

[3] = target: T1, MurA enzyme from E. coli (Escherichia coli, UniProt P0A749); assay: MurA dilution assay; assay type: biochemical; conditions: for RA% (residual activity), dilution assay: compound at 10 times IC50, 30 min preincubation, then 100-fold dilution
T1 sequence (P0A749 whole entry): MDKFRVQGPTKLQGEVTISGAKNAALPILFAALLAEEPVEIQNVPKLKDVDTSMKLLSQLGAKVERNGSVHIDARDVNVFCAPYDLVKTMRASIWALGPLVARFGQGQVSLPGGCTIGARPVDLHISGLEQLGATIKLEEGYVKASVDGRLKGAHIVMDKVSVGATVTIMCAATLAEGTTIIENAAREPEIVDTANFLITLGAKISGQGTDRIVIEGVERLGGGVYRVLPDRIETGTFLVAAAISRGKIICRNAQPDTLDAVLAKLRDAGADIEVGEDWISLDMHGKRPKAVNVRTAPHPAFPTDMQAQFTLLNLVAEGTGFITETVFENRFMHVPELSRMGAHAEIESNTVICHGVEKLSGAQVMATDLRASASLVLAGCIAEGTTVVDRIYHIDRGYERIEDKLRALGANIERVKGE
Description: The enzyme concentration used was the usual concentration in reactivity assays 100-fold (25 μM). After 30 min of preincubation, the mixture was diluted 100-fold, then the previously described reactivity assay was performed using 100 μM PEP.

[4] = system: S. aureus; design: method as in PMID 18313801; conditions: cited from earlier work
[5] = target: T1, MurA enzyme from E. coli; assay: MurA inhibition assay (malachite green, orthophosphate release); assay type: biochemical; conditions: for inhibitory activity on MurA in at least one of the three assays: residual activity at 100 μM, threshold 50% RA, no preincubation, 30 min preincubation, or 30 min + DTT; for time-dependent inhibition: inactive without preincubation, activity after 30 min of preincubation: 0 min vs 30 min preincubation; for effect of DTT on inhibition (comparison of RAs): in the presence of DTT
Description: To determine the inhibition of MurA, the colorimetric assay with malachite green was used to measure the release of orthophosphate generated during the reaction.[30] […] Time-dependent inhibition assays were also performed by preincubating MurA with the 200 μM UNAG substrate and target compounds for 30 min at 37 °C before starting the reaction with the addition of the second substrate 100 μM PEP, resulting in a final mixture volume of 50 μL. The reaction was stopped after a 15 min incubation at 37 °C by adding the Biomol reagent (100 μL, Enzo Life Sciences, New York), and the absorbance was measured after 5 min at 650 nm using a microplate reader (BioTek, Synergy H4). The final concentration of DMSO in the reaction mixture was 5% (v/v), and 1 μM fosfomycin was used as a reference in the MurA assay. The percentage of residual activity was calculated in comparison to the negative controls, which contained only 5% DMSO. IC50 values were determined by measuring residual activities at 7 different concentrations of the compounds and calculated using GraphPad Prism (GraphPad Software, San Diego, California).
The initial screening of flavonoids was performed under three different assay conditions: (1) without preincubation, (2) with a 30 min preincubation, and (3) with the addition of dithiothreitol (DTT) along with a 30 min preincubation. These different conditions were necessary to understand the mechanism of inhibition of each flavonoid. […] To distinguish whether the adduct formed between the inhibitor and the enzyme was covalent or noncovalent, the inhibitory activity was tested in the presence of 0.1 mM DTT.

[6] = Staphylococcus aureus, ATCC29213, S. aureus ATCC 29213, 35 °C, 20 h, read-out: MIC S. aureus
[7] = Escherichia coli, ATCC25922, E. coli ATCC 25922, 35 °C, 20 h, read-out: MIC E. coli
[8] = 100 μM, 30 min preincubation with addition of DTT (0.1 mM), read-out: RA% (residual activity), 30 min + DTT
[9] = 100 μM, without preincubation, read-out: RA% (residual activity), 0 min
[10] = 30 min preincubation, read-out: IC50, 30 min
[11] = without preincubation, read-out: IC50, 0 min

Molecule | MIC [1, 6] | MIC [2, 7] | RA% (residual activity), dilution assay [3] | remaining activity at 100 µM [5, 8] | remaining activity at 100 µM [5, 9] | Hill coefficient, 30 min ([5]; 30 min preincubation) | IC50 [5, 10] | inhibitory activity on MurA in at least one of the three assays [5] | time-dependent inhibition: inactive without preincubation, activity after 30 min of preincubation ([5]; 100 μM) | effect of DTT on inhibition (comparison of RAs) ([5]; 30 min preincubation) | Hill coefficient, 0 min ([5]; without preincubation) | IC50 [5, 11] | further results
O=c1cc(-c2ccc(O)c(O)c2)oc2cc(O)cc(O)c12 [Compound 17, luteolin] | 125 µM | > 250 µM | 91% | 96% | 68% | 1.3 | 41.5 µM | showed inhibitory activity |  |  |  |  | inhibition of S. aureus growth [1]: weak inhibition; antibacterial activity against S. aureus, previous report [4]: 50 µg/mL
O=c1c(O)c(-c2cc(O)c(O)c(O)c2)oc2cc(O)cc(O)c12 [Compound 4, myricetin] | > 250 µM | > 250 µM | 84% | 34% |  | 1.9 |  | showed inhibitory activity | active after 30 min of preincubation | reduced inhibition in the presence of DTT | 0.8 |  | 
Oc1cc(O)c2c(c1)O[C@H](c1ccc(O)c(O)c1)[C@@H](O)[C@H]2O [Compound 35, leucocyanidin] | > 250 µM | > 250 µM |  | 13% |  | 2.9 | 28.6 µM | showed inhibitory activity |  | reduced inhibition in the presence of DTT | 2.6 | 69 µM | Hill coefficient (dose-response curves at 0 and 30 min) [5]: > 2.5
COc1cc(O)c2c(=O)c(O)c(-c3ccc(O)c(O)c3)oc2c1 [Compound 8, rhamnetin] | > 250 µM | > 250 µM | 77% | 58% |  | 1.1 | 13 µM | showed inhibitory activity |  | reduced inhibition in the presence of DTT | 1.1 | 96 µM | 
myricitrin [Compound 5] |  |  | 97% |  |  | 0.6 |  | showed inhibitory activity |  |  |  |  | MIC ([1]; S. aureus ATCC 29213, 35 °C, 20 h, read-out: MIC S. aureus): >250 µM; MIC ([2]; E. coli ATCC 25922, 35 °C, 20 h, read-out: MIC E. coli): >250 µM; RA% (residual activity), 30 min + DTT ([5]; 100 μM, 30 min preincubation with addition of DTT (0.1 mM)): 106%; RA% (residual activity), 0 min ([5]; 100 μM, without preincubation): 76%
O=C1C[C@@H](c2ccccc2)Oc2ccccc21 [Compound 46, flavanone] |  |  |  |  |  |  |  | showed inhibitory activity |  |  |  |  | 
O=c1cc(-c2ccccc2)oc2c(O)c(O)ccc12 [Compound 25, 7,8-dihydroxyflavone] | 125 µM | > 250 µM | 100% | 89% |  | 1.4 | 12.9 µM | showed inhibitory activity |  |  | 2 | 88 µM | inhibition of S. aureus growth [1]: weak inhibition
O=c1c(O)c(-c2ccc(O)c(O)c2)oc2cc(O)ccc12 [Compound 2, fisetin] | > 250 µM | > 250 µM | 98% | 60% |  | 1.0 | 8.8 µM | showed inhibitory activity |  | reduced inhibition in the presence of DTT | 1.4 | 91 µM | 
C[C@@H]1O[C@@H](Oc2c(-c3ccc(O)c(O)c3)oc3cc(O)cc(O)c3c2=O)[C@H](O)[C@H](O)[C@H]1O [Compound 10, quercitrin] |  |  | 88% | 103% | 66% | 1.1 | 33 µM | showed inhibitory activity | active after 30 min of preincubation |  |  |  | MIC ([1]; Staphylococcus aureus, ATCC29213, 20 h, read-out: MIC S. aureus): > 250 µM; MIC ([2]; Escherichia coli, ATCC25922, 20 h, read-out: MIC E. coli): > 250 µM
O=C1c2c(O)cc(O)cc2OC(c2ccc(O)c(O)c2)C1O (centres unmarked) [Compound 47, taxifolin] | > 250 µM | > 250 µM | 93% | 105% | 98% | 0.5 | 4.5 µM | showed inhibitory activity | active after 30 min of preincubation |  |  |  | 
O=C1c2c(O)cc(O)cc2O[C@H](c2cc(O)c(O)c(O)c2)[C@H]1O [Compound 49, ampelopsin] | 125 µM | > 250 µM | 100% | 101% |  | 0.8 | 0.48 µM | showed inhibitory activity |  |  | 0.8 | 36 µM | inhibition of S. aureus growth [1]: weak inhibition; Hill coefficient (dose-response curves at 0 and 30 min) [5]: ~1
COc1cc(O)cc2c1C(=O)C[C@@H](c1ccccc1)O2 [Compound 48, (−)-alpinetin] | > 250 µM | > 250 µM | 93% | 102% | 66% | 1.6 | 57 µM |  | active after 30 min of preincubation |  |  |  | 
O=c1c(O)c(-c2ccc(O)c(O)c2)oc2cc(O)cc(O)c12 [Compound 9, quercetin] | > 250 µM | > 250 µM | 93% | 46% |  | 1.3 | 9.3 µM | showed inhibitory activity |  | reduced inhibition in the presence of DTT | 0.8 | 14 µM | 
CN(C)[C@@H]1C(O)=C(C(N)=O)C(=O)[C@@]2(O)C(O)=C3C(=O)c4c(O)cccc4[C@@](C)(O)[C@H]3C[C@@H]12 [tetracycline, reference compound] |  |  |  |  |  |  |  |  |  |  |  |  | MIC ([1]; Staphylococcus aureus, ATCC29213, S. aureus ATCC 29213, read-out: MIC S. aureus (positive control)): 0.5 mg/L; MIC ([2]; Escherichia coli, ATCC25922, E. coli ATCC 25922, read-out: MIC E. coli (positive control)): 1 mg/L
O=c1cc(-c2ccccc2)oc2cc(O)c(O)c(O)c12 [Compound 26, baicalein] | 31 µM | > 250 µM | 50% | 86% | 66% | 1.4 | 61 µM | showed inhibitory activity | active after 30 min of preincubation |  |  |  | inhibition of S. aureus growth [1]: weak inhibition; effect on E. coli growth ([2]; broth microdilution): had no effect; inhibitory activity after dilution ([3]; dilution assay): retained some inhibitory activity
